The record followed here is ChEMBL document CHEMBL3600301, “CholesteroNitrones for Stroke” (J Med Chem, 2015).

For data set [1], the system named is Primary neuron. Kind of data set: Protection against oxygen-glucose deprivation-induced cytotoxicity in Sprague-Dawley rat cerebral cortex primary neuronal cell cultures assessed as increase in cell viability at 1 uM added at onset of recovery period by MTT assay. It counts as functional, tissue-based. (Tetrazolium assays rely on reduction of a dye to a coloured formazan, in cell work by metabolically active cells.)

For data set [2], the system named is Primary neuron. Kind of data set: Protection against oxygen-glucose deprivation-induced cytotoxicity in Sprague-Dawley rat cerebral cortex primary neuronal cell cultures assessed as increase in cell viability at 5 uM added at onset of recovery period by MTT assay. It counts as functional, tissue-based.
In data set [3] the test system is Primary neuron. Kind of data set: Protection against oxygen-glucose deprivation-induced cytotoxicity in Sprague-Dawley rat cerebral cortex primary neuronal cell cultures assessed as increase in cell viability at 1 and 5 uM added at onset of recovery period and measured during recovery for 5 days by MTT assay. Format: functional, tissue-based.
A short description of data set [4]: Protection against oxygen-glucose deprivation-induced cytotoxicity in Sprague-Dawley rat cerebral cortex primary neuronal cell cultures assessed as increase in cell viability at 1 uM added at onset of recovery period and measured during recovery for 5 days by MTT assay (reference value: 0.842 AU). It counts as functional, Primary neuron.
Data set [5] in a line: Protection against oxygen-glucose deprivation-induced cytotoxicity in Sprague-Dawley rat cerebral cortex primary neuronal cell cultures assessed as increase in cell viability at 5 uM added at onset of recovery period and measured during recovery for 5 days by MTT assay (reference value: 0.842 AU). It counts as functional, Primary neuron.
For data set [6], the system named is Primary neuron. Kind of data set: Protection against oxygen-glucose deprivation-induced cytotoxicity in Sprague-Dawley rat cerebral cortex primary neuronal cell cultures assessed as increase in cell viability at 1 and 5 uM added after 48 hrs post recovery period and measured during recovery for 5 days by MTT assay. Format: functional, tissue-based.
Data set [7] deals with Primary neuron. Kind of data set: Protection against oxygen-glucose deprivation-induced cytotoxicity in Sprague-Dawley rat cerebral cortex primary neuronal cell cultures assessed as increase in cell viability at 0.1 to 250 uM added at onset of recovery period by MTT assay. It counts as functional, tissue-based.
Data set [8] is described as follows: Toxicity in Sprague-Dawley rat cerebral cortex primary neuronal cell cultures under oxygen-glucose deprivation conditions assessed as […] in cell viability at >50 uM added at onset of recovery period by MTT assay. It counts as tissue-based. The following applies: primary neuron.
The test system of data set [9] is Primary neuron. Kind of data set: Protection against oxygen-glucose deprivation-induced cytotoxicity in Sprague-Dawley rat cerebral cortex primary neuronal cell cultures assessed as increase in cell viability at 250 uM added at onset of recovery period by MTT assay. It counts as functional, tissue-based.
Data set [10] deals with Primary neuron. Kind of data set: Protection against oxygen-glucose deprivation-induced cytotoxicity in Sprague-Dawley rat cerebral cortex primary neuronal cell cultures assessed as increase in cell viability at 250 uM added at onset of recovery period and measured during recovery for 5 days by MTT assay. It counts as functional, tissue-based.
In data set [11] the test system is Primary neuron. Kind of data set: Protection against oxygen-glucose deprivation-induced cytotoxicity in Sprague-Dawley rat cerebral cortex primary neuronal cell cultures assessed as increase in cell viability at 250 uM added after 48 hrs post recovery period and measured during recovery for 5 days by MTT assay. Format: functional, tissue-based.
For data set [12], the system named is Rattus norvegicus. Kind of data set: Neuroprotection in Wistar rat model of ischemia assessed as reduction in neurological deficit score at 40 mg/kg measured after 5 days of reperfusion. Format: functional, organism-based.
Data set [13] relates to Rattus norvegicus. Kind of data set: Neuroprotection in Wistar rat model of ischemia assessed as reduction ischemia-induced neuronal death in hippocampal CA1 regions at 40 mg/kg, ip dosed at onset of reperfusion period and measured on 5 days of reperfusion by fluoro jade B staining based fluorescence microscopy. Format: functional. Further details: scale not given: the % may be the effect or the level left.

Data set [14] concerns Rattus norvegicus. Kind of data set: Neuroprotection in Wistar rat model of ischemia assessed as reduction ischemia-induced neuronal death in cortical regions at 40 mg/kg, ip dosed at onset of reperfusion period and measured on 5 days of reperfusion by fluoro jade B staining based fluorescence microscopy. Format: functional. Also noted: scale not given: the % may be the effect or the level left.

The test system of data set [15] is Rattus norvegicus. Kind of data set: Neuroprotection in Wistar rat model of ischemia assessed as reduction ischemia-induced neuronal apoptosis in hippocampal CA1 regions at 40 mg/kg, ip dosed at onset of reperfusion period and measured on 5 days of reperfusion by TUNEL assay. It counts as functional. Also noted: scale not given: the % may be the effect or the level left.

Data set [16] concerns Rattus norvegicus. Kind of data set: Neuroprotection in Wistar rat model of ischemia assessed as reduction ischemia-induced neuronal apoptosis in cortical regions at 40 mg/kg, ip dosed at onset of reperfusion period and measured on 5 days of reperfusion by TUNEL assay. Format: functional. Further details: scale not given: the % may be the effect or the level left.
Data set [17] is described as follows: Toxicity in Sprague-Dawley rat cerebral cortex primary neuronal cell cultures under oxygen-glucose deprivation conditions assessed as […] in cell viability at >10 uM added at onset of recovery period by MTT assay. It counts as tissue-based. The following applies: primary neuron.
Data set [18] deals with Primary neuron. Kind of data set: Reduction of oxygen-glucose deprivation-induced ROS generation in Sprague-Dawley rat cerebral cortex primary neuronal cell cultures at 1 to 10 uM measured at 2 hrs of recovery after oxygen-glucose deprivation by fluorescence assay. It counts as functional, tissue-based.
For data set [19], the system named is Primary neuron. Kind of data set: Reduction of oxygen-glucose deprivation-induced lipid peroxidation in Sprague-Dawley rat cerebral cortex primary neuronal cell cultures assessed as reduction in MDA level at 5 uM measured at 4 hrs of recovery after oxygen-glucose deprivation by TBARS based colorimetric and fluorometric assay. It counts as functional, tissue-based.

Data set [20] deals with Rattus norvegicus. Kind of data set: Neuroprotection in Wistar rat model of ischemia assessed as reduction in neurological deficit score at 0.005 mg/kg measured after 5 days of reperfusion (reference value: 2.5 +/- 0.34 No unit). Format: functional.
Data set [21] deals with Rattus norvegicus. Kind of data set: Neuroprotection in Wistar rat model of ischemia assessed as reduction in neurological deficit score at 0.1 mg/kg measured after 5 days of reperfusion (reference value: 2.5 +/- 0.34 No unit). Format: functional.
The test system of data set [22] is Rattus norvegicus. Kind of data set: Neuroprotection in Wistar rat model of ischemia assessed as reduction ischemia-induced neuronal death in hippocampal CA1 regions at 0.05 mg/kg, ip dosed at onset of reperfusion period and measured on 5 days of reperfusion by fluoro jade B staining based fluorescence microscopy. It counts as functional. Further details: scale not given: the % may be the effect or the level left.

Data set [23] concerns Rattus norvegicus. Kind of data set: Neuroprotection in Wistar rat model of ischemia assessed as reduction ischemia-induced neuronal death in cortical regions at 0.05 mg/kg, ip dosed at onset of reperfusion period and measured on 5 days of reperfusion by fluoro jade B staining based fluorescence microscopy. Format: functional. Also noted: scale not given: the % may be the effect or the level left.

In data set [24] the test system is Rattus norvegicus. Kind of data set: Neuroprotection in Wistar rat model of ischemia assessed as reduction ischemia-induced neuronal death in hippocampal CA1 regions at 0.1 mg/kg, ip dosed at onset of reperfusion period and measured on 5 days of reperfusion by fluoro jade B staining based fluorescence microscopy. It counts as functional. Further details: scale not given: the % may be the effect or the level left.

The subject of data set [25] is Rattus norvegicus. Kind of data set: Neuroprotection in Wistar rat model of ischemia assessed as reduction ischemia-induced neuronal death in cortical regions at 0.1 mg/kg, ip dosed at onset of reperfusion period and measured on 5 days of reperfusion by fluoro jade B staining based fluorescence microscopy. Format: functional. Further details: scale not given: the % may be the effect or the level left.

Data set [26] has as its system Rattus norvegicus. Kind of data set: Neuroprotection in Wistar rat model of ischemia assessed as reduction ischemia-induced neuronal apoptosis in hippocampal CA1 regions at 0.05 and 0.1 mg/kg, ip dosed at onset of reperfusion period and measured on 5 days of reperfusion by TUNEL assay. Format: functional. Further details: scale not given: the % may be the effect or the level left.

Data set [27] has as its system Rattus norvegicus. Kind of data set: Neuroprotection in Wistar rat model of ischemia assessed as reduction ischemia-induced neuronal apoptosis in cortical regions at 0.05 and 0.1 mg/kg, ip dosed at onset of reperfusion period and measured on 5 days of reperfusion by TUNEL assay. It counts as functional. Further details: scale not given: the % may be the effect or the level left.

Molecules are shown by their SMILES. Calls of active or inactive are those of the source. The calls are words filed in the database; no cut-off is given here.

With `CC(C)CCC[C@@H](C)[C@H]1CC[C@H]2[C@@H]3CCC4=C/C(=[N+](/C)[O-])CC[C@]4(C)[C@H]3CC[C@]12C`, the outcome in the data set with Primary neuron [1] and with Primary neuron [2] was inactive. For the same compound, the outcome with Primary neuron [3] and in the data set with Primary neuron [6] was Active. Also, the Activity in data set [4] stood at 0.888 a.u; in data set [5], 0.998 a.u.
With `CC(C)CCC[C@@H](C)[C@H]1CC[C@H]2[C@@H]3CCC4=CC(=O)CC[C@]4(C)[C@H]3CC[C@]12C` [4-CHOLESTEN 3-ONE], in the data set with Primary neuron [7], the outcome was inactive. Besides, the Activity entry in data set [8] was “Toxic”.
Regarding `CC(C)(C)/[N+]([O-])=C/c1ccc(S(=O)(=O)[O-])cc1S(=O)(=O)[O-].[Na+].[Na+]`, in the data set with Primary neuron [9], the outcome was Active. The result with Primary neuron [10], with Primary neuron [11] and in the data set with Rattus norvegicus [12] was inactive. For the same compound, the Activity is 17% with Rattus norvegicus [13], 66% with Rattus norvegicus [14], 21% in the data set with Rattus norvegicus [15] and 55% in the data set with Rattus norvegicus [16].
Turning to `CC(C)CCC[C@@H](C)[C@H]1CC[C@H]2[C@@H]3CCC4=C/C(=[N+](\C)[O-])CC[C@]4(C)[C@H]3CC[C@]12C`, the outcome in the data set on Primary neuron [1], in the data set on Primary neuron [2], in the data set on Primary neuron [9], with Primary neuron [3], in the data set on Primary neuron [6] and with Primary neuron [18] was Active. In addition, in the data set with Primary neuron [19], the outcome was Active. Further, the Activity entry is “Toxic” in data set [17]; 0.931 a.u in [4]; 0.995 a.u in [5]; 0.5 in the data set on Rattus norvegicus [20]; 1.25 with Rattus norvegicus [21]; 17% in the data set on Rattus norvegicus [22]. The Activity in the data set with Rattus norvegicus [23] is reported as 66%; in the data set with Rattus norvegicus [24] it was 27%; in the data set with Rattus norvegicus [25] it was 83%; with Rattus norvegicus [26] it was 30%; in the data set with Rattus norvegicus [27] it was 89%.
With `CC(C)CCC[C@@H](C)[C@H]1CC[C@H]2[C@@H]3CC=C4CC(=O)CC[C@]4(C)[C@H]3CC[C@]12C`, the outcome in the data set with Primary neuron [7] was inactive.
